Laboratory results taken from patent US12293809B2, “Workflow for generating compounds with biological activity against a specific biological target” (INSILICO MEDICINE IP LIMITED, priority 2019, dated 2025).
Values joined by “and” are separate entries in the source; they are usually repeats but may differ in a detail not shown here. Equal values may be shown once.

What was measured:
[1] = Microsomal stability (MLM)
Description: (§1) Cold acetonitrile (ACN) including 100 ng/mL Tolbutamide and 100 ng/mL Labetalol as internal standard (IS) were used for stop solution. 10 μL compound or control working solution/well was added to all plates (T0, T5, T10, T20, T30, T60, NCF60) except matrix blank. Dispense 80 μL/well microsome solution was added to every plate by Apricot, the mixture of microsome solution and compound were incubated at 37° C. for about 10 min. After pre-warming, dispense 10 μL/well NADPH regenerating system was added to every plate by Apricot to start reaction. The solution was then incubated at 37° C. 300 (μL/well) stop solution (cold in 4° C.) was added to terminate the reaction. The sampling plates were shaken for approximately 10 min. Samples were centrifuged at 4000 rpm for 20 min under 4° C. While centrifuging, 8×new 96-well plate were loaded with 300 μL HPLC water, then 100 μL supernatant was transferred and mixed for LC/MS/MS.

Human DDR1b = biological target: T1, Human DDR1b (Homo sapiens, UniProt Q08345); assay: DDR1 autophosphorylation in collagen-stimulated U2OS cells (Western blot); assay type: cell-based; conditions: normalized to HA and GAPDH
T1 construct: expressed in transfected cells
Description: The amount of activated DRR1 (Y543) was measured using Western blot analysis, the obtained data were normalized to HA and GAPDH protein levels.
Human DDR1b gene with HA-tag was cloned into pCMV Tet-On vector (Clontech) and stable inducible cell lines established in U2OS were used for the IC50 test. […] The cells were detached with trypsinization and transferred to a 15-ml tube.

[2] = Microsomal stability (DLM); conditions: for Remaining (*NCF = 60 min) / Remaining (T = 60 min): 1 h
Description: as §1

hDDR1 = hDDR1 (Homo sapiens, UniProt Q08345); assay: Rescreen in another biochemical assay (Thermo Fisher-PR6913A); conditions: read-out: IC50 towards DDR1 kinase, rescreen
Description: In the present example, six molecules were generated, selected, and synthesized and were submitted for biological testing (e.g., within 35 days). […] Since the dose-response curves for Compounds 2 and 4 seemed likely inconsistent, additional experiments were performed to confirm the activity of these molecules towards DDR1 kinase (see FIG. 4B). […] Compounds 1 and 2 were also evaluated towards DDR2 kinase.
FIGS. 4A-4B show the structures and dose-response curves for the generated molecules. The six generated compounds were tested in a dose-dependent manner against DDR1 tyrosine kinase.

eEF-2K = biological target: T2, eEF-2K (Homo sapiens, UniProt O00418); assay: scanMAX Delta Kinase Panel (Eurofins), single concentration; assay type: biochemical; conditions: 10 μM; highest inhibition within the panel
T2 construct: purchased Eurofins 50-100KP10
Description: The issue of selectivity is of vital importance for a lead compound to estimate possible off-target effects that can influence the pre-clinical evaluation success. […] DDR1 kinase is mostly expressed in epithelial cells, whereas the expression of DDR2 is generally observed in […]. Even though that the prevention of fibrosis is the primary goal, the selectivity over DDR2 kinase is also a very important consideration.
The experimental procedures were performed by Eurofins. The activity of the molecules against hDDR1 and hDDR2 kinases was assessed using KinaseProfiler^67. The enzyme sample was incubated with 8 mM MOPS buffer (pH=7.0), 0.2 mM EDTA, […] target protein hDDR1 and hDDR2 kinases, 10 mM Magnesium acetate/Manganese chloride, respectively, and [γ-^33P]-ATP. The enzymatic reaction processed in the presence of Mg^2+ cations and ATP at room temperature for 40 minutes and terminated by addition of phosphoric acid. The reaction mixture (10 μL) was spotted onto a P30 filtermat and washed four times using 0.425% phosphoric acid and once with methanol. All the compounds were prepared in 100% DMSO. […] The biological evaluation of selectivity against non-target kinases was performed in Dundee Eurofins, using Scan Max Delta Panel [10 μM ATP] KinaseProfiler^68.

Sequence of hDDR1 (Q08345 19-913): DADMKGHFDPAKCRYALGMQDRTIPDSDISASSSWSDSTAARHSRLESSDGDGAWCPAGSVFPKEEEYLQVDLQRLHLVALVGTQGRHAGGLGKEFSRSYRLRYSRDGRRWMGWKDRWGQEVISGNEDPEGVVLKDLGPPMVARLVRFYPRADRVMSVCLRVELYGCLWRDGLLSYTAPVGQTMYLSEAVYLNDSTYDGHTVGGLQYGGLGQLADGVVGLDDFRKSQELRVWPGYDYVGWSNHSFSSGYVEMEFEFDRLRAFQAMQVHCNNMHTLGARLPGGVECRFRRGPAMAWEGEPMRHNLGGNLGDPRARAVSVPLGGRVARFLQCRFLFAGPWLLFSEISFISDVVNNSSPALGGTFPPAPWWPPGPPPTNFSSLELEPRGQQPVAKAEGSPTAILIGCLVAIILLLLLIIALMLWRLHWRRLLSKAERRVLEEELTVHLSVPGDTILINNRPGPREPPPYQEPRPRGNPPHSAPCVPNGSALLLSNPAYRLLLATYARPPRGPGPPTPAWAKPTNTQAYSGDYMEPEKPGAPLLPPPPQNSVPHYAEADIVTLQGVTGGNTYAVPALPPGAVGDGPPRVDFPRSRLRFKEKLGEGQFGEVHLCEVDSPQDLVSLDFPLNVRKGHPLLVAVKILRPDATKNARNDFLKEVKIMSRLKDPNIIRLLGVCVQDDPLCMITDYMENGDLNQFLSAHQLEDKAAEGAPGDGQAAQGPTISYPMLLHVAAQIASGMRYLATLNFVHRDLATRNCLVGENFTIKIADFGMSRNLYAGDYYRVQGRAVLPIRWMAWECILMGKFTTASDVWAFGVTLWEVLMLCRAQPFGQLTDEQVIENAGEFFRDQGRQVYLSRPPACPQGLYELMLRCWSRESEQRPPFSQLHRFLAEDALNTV
T1 sequence (Q08345 19-913): as above

| Compound | CLint(mic) ([1]; MLM 0.5) | T1/2 ([1]; mouse, microsomes) [min] | Remaining (*NCF = 60 min) ([1]; mouse, microsomes, 1 h) [%] | Remaining (T = 60 min) ([1]; mouse, microsomes, 1 h) [%] | IC50 (Human DDR1b) [nM] | CLint(mic) ([2]; DLM 0.5) | CLint(mic) ([2]; HLM 0.5) | T1/2 ([2]; dog, microsomes) [min] | Remaining (*NCF = 60 min) ([2]; dog, microsomes) [%] | Remaining (T = 60 min) ([2]; dog, microsomes) [%] | T1/2 ([2]; human, microsomes) [min] | Remaining (*NCF = 60 min) ([2]; human, microsomes) [%] | Remaining (T = 60 min) ([2]; human, microsomes) [%] | CLint(mic) ([2]; rat, microsomes) | T1/2 ([2]; rat, microsomes) [min] | Remaining (*NCF = 60 min) ([2]; rat, microsomes) [%] | Remaining (T = 60 min) ([2]; rat, microsomes) [%] | IC50 (hDDR1) | INH % (eEF-2K) [%] |
| --- | --- | --- | --- | --- | --- | --- | --- | --- | --- | --- | --- | --- | --- | --- | --- | --- | --- | --- | --- |
| O=C(Nc1cccc(C(=O)N2CCN(c3ccnc4[nH]ccc34)C2)c1)c1cccc(C(F)(F)F)c1 [Compound 2] | 91.8 | 15.1 | 86.0 | 5.3 | 5.8 | 162.6 | 108.2 | 8.5 | 99.9 | 0.6 | 12.8 | 88.7 | 2.8 | 80.6 | 17.2 | 88.3 | 7.1 | 37 nM and 37.1 nM |  |
| Cc1ccc2c(Nc3cccc(C(F)(F)F)c3)noc2c1C#Cc1cnc2cccnn12 [Compound 1] |  |  |  |  |  |  |  |  |  |  |  |  |  |  |  |  |  |  | 37 |
